Measured values published in patent US20150133456A1, “FLUOROERGOLINE DERIVATIVES AND USES THEREOF” (MAP PHARMACEUTICALS, INC., priority 2012, published 2015).

What was measured:
human α2C receptor = human α2C receptor (Homo sapiens, UniProt P18825); assay: GTPγS antagonist assay, α2C; type: biochemical; settings: read-out: IC50, α2C antagonism
Calcitonin (AM1/AM2) = Calcitonin (AM1/AM2) cAMP HTRF assays; type: cell-based, human
Method: Cells expressing the human recombinant receptor of interest were grown in media without antibiotic and detached by gentle flushing with PBS-EDTA (5 mM EDTA), recovered by centrifugation and resuspended in assay buffer (KRH: 5 mM KCl, 1.25 mM MgSO4, 124 mM NaCl, 25 mM HEPES, 13.3 mM glucose, 1.25 mM KH2PO4, 1.45 mM CaCl2, 0.5 g/L BSA). Dose response curves were performed in parallel with the reference compounds. For agonist tests (96-well plates), 12 μL of cells was mixed with 12 μL of the test compound at increasing concentrations and then incubated for 30 minutes at room temperature. Lysis buffer was added and after a 1 hour incubation, cAMP concentrations was determined according to the manufacturer specification with the HTRF kit. […] Lysis buffer was added and after a 1 hour incubation, cAMP concentrations were determined according to the manufacturer specification, with the HTRF kit.
Cells expressing the human recombinant receptor of interest were grown in media without antibiotic and detached by gentle flushing with PBS-EDTA (5 mM EDTA), recovered by centrifugation and resuspended in assay buffer (KRH: 5 mM KCl, 1.25 mM MgSO4, 124 mM NaCl, 25 mM HEPES, 13.3 mM glucose, 1.25 mM KH2PO4, 1.45 mM CaCl2, 0.5 g/L BSA). […] Lysis buffer was added and after a 1 hour incubation, cAMP concentrations was determined according to the manufacturer specification with the HTRF kit. […]

[1] = tested on: NMDA (NR1/NR2A/NR2B/NR2C/NR2D); assay: NMDA receptor Fluo-8 calcium FLIPR assay, agonist and antagonist; type: cell-based, human; settings: NMDA channels in HEK293
Method: The following channels were evaluated: Cloned NMDA receptor (NR1/NR2A) channel (encoded by the GRIN1 and GRIN2A genes, coexpressed in HEK293 cells; Cloned NMDA receptor (NR1/NR2B) channel (encoded by the GRIN1 and GRIN2B genes, coexpressed in HEK293 cells; Cloned NMDA receptor (NR1/NR2C) channel (encoded by the GRIN1 and GRIN2C genes, coexpressed in HEK293 cells; and Cloned NMDA receptor (NR1/NR2D) channel (encoded by the GRIN1 and GRIN2D genes, transiently coexpressed in HEK293 cells.
For the agonist assessment, the effect of 2-CF3-DHE was evaluated in the absence of the positive control agonist. The signal, elicited in the presence of the agonist (100 μM Glutamic acid+20 μM Glycine), was set to 100% activation and the signal in the presence of the vehicle control (Mg^2+-free HB-PS) was set to 0% activation.
For the antagonist assessment, NR1/NR2A and NR1/NR2B was activated with the positive control agonist (100 μM Glutamic acid+20 μM Glycine). The ability of 2-CF3-DHE to inhibit the signal was examined after agonist stimulation and compared to the positive control antagonist (MK-801).

[2] = tested on: VIP/PACAP (PAC1/VPAC1/VPAC2); assay: VIP/PACAP receptor Aequorin assays; type: cell-based, human
Method: CHO-K1 cells coexpressing mitochondrial apoaequorin and the recombinant human receptor of interest were grown to mid-log phase in culture media without antibiotics and then detached with PBS-EDTA, centrifuged and resuspended in assay buffer (DMEM/HAM's F12 with HEPES, without phenol red+0.1% BSA, protease free) at a concentration of 1×10^6 cell/mL. Cells were incubated at room temperature for at least 4 hours with coelenterazine h. Reference agonist/antagonist was tested to evaluate the performance of the assay and to determine EC50/IC50.
50 μL of the cell suspension was mixed with 50 μL of test or reference agonist in a 96-well plate. […] For antagonist testing, 100 μL of the reference agonist at its EC80 was injected on the mix of cells and test compound, following an incubation of 15 minutes after the first injection. The resulting emission of light was r recorded using Hamamatsu Functional Drug Screening System 6000 (FDSS 6000) luminometer. To standardize the emission of recorded light (and determine of the “100% signal”) across plates and across different experiments, some wells contained 100 μM digitonin or a saturating concentration of ATP (20 μM).

human α2A receptor = human α2A receptor (Homo sapiens, UniProt P08913); assay: GTPγS antagonist assay, α2A; type: biochemical; settings: read-out: IC50, α2A antagonism
human α2A receptor, sequence (P08913 whole entry): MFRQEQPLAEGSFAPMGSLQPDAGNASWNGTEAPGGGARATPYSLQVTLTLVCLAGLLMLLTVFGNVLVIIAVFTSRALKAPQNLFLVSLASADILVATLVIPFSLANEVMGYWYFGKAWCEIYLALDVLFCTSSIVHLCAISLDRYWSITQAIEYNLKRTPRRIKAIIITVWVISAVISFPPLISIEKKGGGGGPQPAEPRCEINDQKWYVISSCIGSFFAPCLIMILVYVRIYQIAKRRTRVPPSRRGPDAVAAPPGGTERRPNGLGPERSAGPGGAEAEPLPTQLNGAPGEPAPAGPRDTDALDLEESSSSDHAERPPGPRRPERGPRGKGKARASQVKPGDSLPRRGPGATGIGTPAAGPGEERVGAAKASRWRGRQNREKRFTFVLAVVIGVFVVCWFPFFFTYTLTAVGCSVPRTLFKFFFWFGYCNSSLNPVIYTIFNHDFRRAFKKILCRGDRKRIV

α1A receptor = molecular target: T1, α1A receptor (Homo sapiens, UniProt P35348); assay: Competitive antagonist activity, adrenergic α1A; type: cell-based; settings: read-out: IC50, α1A antagonism
T1 construct: expressed in transfected cells
T1 sequence (P35348 whole entry): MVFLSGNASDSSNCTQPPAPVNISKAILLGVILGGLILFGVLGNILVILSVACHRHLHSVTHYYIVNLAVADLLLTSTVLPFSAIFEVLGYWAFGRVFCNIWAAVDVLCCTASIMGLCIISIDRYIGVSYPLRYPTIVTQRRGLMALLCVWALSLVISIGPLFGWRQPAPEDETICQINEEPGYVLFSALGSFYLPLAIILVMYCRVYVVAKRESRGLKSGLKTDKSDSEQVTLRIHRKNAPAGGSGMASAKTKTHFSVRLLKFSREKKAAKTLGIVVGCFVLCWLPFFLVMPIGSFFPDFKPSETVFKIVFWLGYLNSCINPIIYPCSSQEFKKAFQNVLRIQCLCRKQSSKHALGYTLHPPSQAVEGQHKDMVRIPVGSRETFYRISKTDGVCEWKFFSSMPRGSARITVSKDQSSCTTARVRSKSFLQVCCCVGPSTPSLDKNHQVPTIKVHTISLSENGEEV

human α2C receptor, sequence (P18825 whole entry): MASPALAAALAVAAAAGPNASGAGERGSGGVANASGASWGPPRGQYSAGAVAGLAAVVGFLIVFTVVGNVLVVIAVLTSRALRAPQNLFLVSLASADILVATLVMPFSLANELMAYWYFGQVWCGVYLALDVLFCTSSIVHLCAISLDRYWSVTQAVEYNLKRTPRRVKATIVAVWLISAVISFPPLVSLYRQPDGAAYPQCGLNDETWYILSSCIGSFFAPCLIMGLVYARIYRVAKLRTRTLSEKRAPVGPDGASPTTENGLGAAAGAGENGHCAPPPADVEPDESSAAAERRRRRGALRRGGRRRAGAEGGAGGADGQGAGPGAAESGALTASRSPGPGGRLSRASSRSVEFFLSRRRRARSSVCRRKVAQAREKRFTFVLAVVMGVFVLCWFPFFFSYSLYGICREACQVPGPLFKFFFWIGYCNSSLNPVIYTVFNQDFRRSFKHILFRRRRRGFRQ

CN1C[C@H](C(=O)N[C@]2(C)O[C@@]3(O)[C@@H]4CCCN4C(=O)[C@H](Cc4ccccc4)N3C2=O)CC2c3cccc4[nH]c(C(F)(F)F)c(c34)CC21 (stereo partly drawn) [2-CF3-dihydroergotamine]
IC50 (human α2C receptor): 2.78 µM
Activity (Agonism: EC50; Antagonism: IC50) (Calcitonin (AM1/AM2)): Inactive
Activity (Agonism: EC50; Antagonism: IC50) [1]: Inactive
Activity (Agonism: EC50; Antagonism: IC50) [2]: Inactive
IC50 (human α2A receptor): 0.404 µM
IC50 (α1A receptor): 0.207 µM
